Experimental data: patent publication US20080124385A1, “Methods for Transmembrane Treatment and Prevention of Otitis Media” (Piedmont Pharmaceuticals,LLC., priority 2004, published 2008)

Tested on: Haemophilus influenzae
Assay: Chinchilla model of otitis media (middle ear inoculated with Haemophilus influenzae)
Format: in vivo, Chinchilla langer
Conditions: oral gavage, 20 mg/kg BID for 6 days; 3 animals/group; positive control
Procedure: To establish and evaluate the animal model, each chinchilla was inoculated with Haemophilus influenzae directly into the middle ear of each ear by transbullar injection at a concentration of 100 cfu in a volume of 0.2 mL. Each chinchilla was given an otoscope ear exam prior to being placed on study. Dosing with a composition of the invention or control oral amoxicillin began approximately 48 hours after the bacterial inoculation. All animals were administered Buprenorphine 0.05 mg/kg twice a day subcutaneously for analgesia for the duration of the study.
At the end of the dosing period (8 days after bacterial inoculation), each animal was euthanized, their ear canals washed with saline, and examined. In particular, samples from the middle ear from each chinchilla were collected. One ear sample was cultured overnight per laboratory procedures. Approximately 24 hours after the samples plated out, they were counted and the colony forming units (cfu) recorded.
The positive control article (amoxicillin) was administered orally by gavage to three chinchillas twice per day for 6 days, approximately 8 hours apart. 2, 4 or 6 drops of ofloxacin 0.3% liposome formulation or ciprofloxacin 0.3% liposome formulation were administered to two groups of three chinchillas each as a maximal feasible dose for these animals.

CC1(C)S[C@@H]2[C@H](NC(=O)[C@H](N)c3ccc(O)cc3)C(=O)N2[C@H]1C(=O)O [Amoxicillin, amoxicillin]
Active infection present after 6 days: No active infection present in any animal
